We go through 1 sequence from publication PMC7913925, “Design and Evaluation of a Polypeptide That Mimics the Integrin Binding Site for EDA Fibronectin to Block Profibrotic Cell Activity” (International Journal of Molecular Sciences, 2021).

Bridges are numbered along the chain shown (N, C = ends). Where no end group is shown, it is not given here.

Assay [1] has as its system FAK in NIH/3T3 fibroblasts. In words: Western blot FAK phosphorylation and total protein. In kind it is cell-based, mouse. The following applies: TGF-β1 10 ng/mL, AF38Pep 10 µg/mL. Here is the method: Total protein was extracted from cells in RIPA lysis buffer containing 1% protease inhibitor cocktail, 1% phenylmethylsulfonyl fluoride, and 1% sodium orthovanadate (Santa Cruz Biotechnology, Santa Cruz, CA, USA). Protein was quantified by Micro BCA Protein Assay Kit (Thermo Fisher Scientific) before 7.5% SDS-PAGE and transfer to nitrocellulose. Membranes were blocked with 5% bovine serum albumin (BSA; Sigma-Aldrich)/0.5% Tween-20 (Sigma-Aldrich)/PBS for 1 h, RT, followed by incubation with primary antibodies diluted in 1% BSA/0.1% Tween-20/PBS, overnight at 4 °C. Primary antibodies were: anti-phosphoY204/Y187 ERK1/2 (1:1000); anti-ERK1/2 (1:1000); anti-phosphoY861 FAK (1:1000); anti-FAK (1:2000). Immunoblotting for anti-GAPDH (1:2500) was used as a protein loading control. Following wash steps, membranes were incubated in goat anti-rabbit IgG H&L secondary antibody (horseradish peroxidase, HRP conjugate, […]) (Abcam; 1:5000 dilution, 1% BSA/0.1% Tween-20/PBS). Detection was performed using Immobilon reagent (Merck Millipore, Burlington, MA, USA) and imaged using a Tanon 5500 Chemiluminescent Imaging System (Tanon, Shanghai, China).

The subject of assay [2] is Ltbp1 mRNA in NIH/3T3 fibroblasts. Briefly: qRT-PCR Ltbp1 mRNA. In kind it is cell-based, mouse. The following applies: 48 h, TGF-β1 10 ng/mL. As for the experimental part:
(§1) Reverse transcription (RT) and real-time quantitative PCR (qRT-PCR) were used to assess ACTA2/Acta2, Col1a1, Col3a1, Fn1, Eda-Fn1, Mmp9, Tgfb1, Ltbp1, Hic5, and Mrtfa mRNA expressions. Custom PCR primers were designed in-house (Table 2) and then synthesized by BGI (Beijing, China). Cells were grown in 6-well culture plates and washed with phosphate buffered saline (PBS) before lysis with TRIzon Reagent (CWBio, Beijing, China) and total RNA purification according to the manufacturer’s protocol. Reverse transcription was carried using the TransScript First-Strand cDNA Synthesis SuperMix kit according to the manufacturer’s protocol (TransGen, Beijing, China), using the random primer method for the initiation of cDNA synthesis. Nuclease-free H2O replaced the RNA sample to serve as a negative control for the reverse transcription reaction. For qRT-PCR, 10 µL 2× TransStart Top Green qPCR SuperMix was added to each well of a 96-well PCR plate containing 0.4 µL forward primer, 0.4 µL reverse primer, […], and nuclease-free water to a total volume of 20 µL. The qRT-PCR reaction was completed using a CFX96 Real-Time PCR Detection System (Bio-Rad Laboratories, Hercules, CA, USA). Amplification used the following parameters: 94 °C for 30 s, followed by 40 cycles of 94 °C for 5 s, 55 °C for 15 s, 72 °C for 10 s, and then a dissociation stage (melt-curve). […]
On the technique in general: Quantitative PCR measures a nucleic acid by following its amplification.

A further assay relates to osteopontin (OPN). In words: Western blot total protein OPN. The class given is cell-based. Conditions: 48 h, TGF-β1+AF38Pep. (In general: Immunoblotting shows a protein as a band on a membrane.)
The subject of assay [3] is integrin α4 protein (ITGA4). In words: Western blot total protein ITGA4. In kind it is cell-based. Conditions: 48 h TGF-β1, AF38Pep or TGF-β1+AF38Pep.
The test system of a further assay is Eda-Fn1 mRNA. In words: qRT-PCR Eda-Fn1 mRNA. The class given is cell-based, mouse. Here is the method:
as §1

For a further assay, the system named is Col1a1 mRNA. Briefly: qRT-PCR Col1a1 mRNA. The class given is cell-based, mouse. As for the experimental part: as §1

Regarding “VMPYISTTPAKPCTSENCGNSWYGGFKSKNENKIYFIN (disulfide 13-18 (inferred)) [AF38Pep]”, the figures for the FAK phosphorylation result in assay [1] (1 h) and in assay [1] (12 h) were “significantly suppressed” and “significantly less activation”, respectively. In assay [1] (12 h), the “total FAK protein” value is given as “marginally reduced”. For the same sequence, in assay [2], the “LTBP1 mRNA expression” value is on record as “attenuated”. For the same sequence, the OPN protein expression result in the assay with osteopontin (OPN) is “significantly attenuated”. The ITGA4 total protein result in assay [3] is “remained unaffected”. Besides, the “EDA-FN splice variant mRNA expression” value in the assay with Eda-Fn1 mRNA (72 h, TGF-β1 + AF38Pep) is given as “all inhibited”; with Eda-Fn1 mRNA (by 48 h, vs TGF-β1-only), “significant attenuation”. For the same sequence, the “collagen type I mRNA expression” value with Col1a1 mRNA (72 h, TGF-β1 + AF38Pep) is reported as “all inhibited”; in the assay with Col1a1 mRNA (by 48 h, vs TGF-β1-only), “significant attenuation”.
